# In PMC8879074, “A Novel Small Molecular Prostaglandin Receptor EP4 Antagonist, L001, Suppresses Pancreatic Cancer Metastasis” (Molecules, 2022):
# Tests used:
# [1] = molecular target: EP4 (Homo sapiens, UniProt P35408); test: cAMP responsive element (CRE) luciferase reporter assay; type: cell-based; design: host or cells: HEK293 (results) / CHO-K1 (methods)
# Experimental: CHO-K1 cells or pancreatic cancer cell lines were transfected with a cAMP responsive element (CRE) reporter or TEAD reporter using lipofectamine 2000 according to the manufacturer’s manual. Transfected cells were treated with varied concentrations of compounds for 24 h. Then, cells were lysed and luciferase activities were determined using Dual-Luciferase Reporter Assay Kit (Promega, Madison, WI, USA).
# [2] = molecular target: T1, human EP1 (Homo sapiens, UniProt P34995); test: Calcium flux assay, human EP1; type: cell-based; details: CHO-Gα16 cells, PGE2 (EC80)
# T1 construct: expressed in transfected cells; host or cells: CHO-Gα16
# T1 sequence (P34995 1-402): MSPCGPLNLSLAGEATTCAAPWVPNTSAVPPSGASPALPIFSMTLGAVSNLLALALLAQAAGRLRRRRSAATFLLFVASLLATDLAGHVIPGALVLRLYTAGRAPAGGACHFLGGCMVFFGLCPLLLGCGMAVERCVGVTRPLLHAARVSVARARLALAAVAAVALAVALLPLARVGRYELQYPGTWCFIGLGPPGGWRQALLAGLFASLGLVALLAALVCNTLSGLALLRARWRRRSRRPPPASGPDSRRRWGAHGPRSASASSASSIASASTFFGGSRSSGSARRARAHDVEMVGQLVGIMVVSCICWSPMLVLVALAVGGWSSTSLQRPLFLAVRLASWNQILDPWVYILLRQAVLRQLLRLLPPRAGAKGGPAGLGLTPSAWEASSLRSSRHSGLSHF
# Experimental: Calcium flux assay was conducted as described in our previous study. Briefly, CHO-Gα16 cells were transfected, respectively, with human EP1, human EP2, human EP3, human EP4, monkey EP4, mouse EP4 and rat EP4 overexpression constructs using lipofectamine 2000 according to the manufacturer’s manual. Cells were then seeded into a 96-well black plate with a cell density of 2 × 10^4 cells/100 μL per well for a 16-h culture. On the next day, cells were incubated for 45 min with reagents (100 μL/well) of Calcium-5 Assay Kit (Molecular Devices, San Jose, CA, USA). Then, cells were pre-treated with indicated concentrations of L001 for 15 min and stimulated with PGE2 (EC80). The calcium flux was detected subsequently by a Flexstation® 3 Multi-Mode Microplate Reader (Molecular Devices, San Jose, CA, USA).
# [3] = tested on: ERK1/2 phosphorylation; test: Western blotting of PGE2-induced ERK1/2 phosphorylation; type: cell-based; details: pre-incubation 20 min, then 30 nM PGE2 for 5 min; dose-dependent
# [4] = tested on: BxPC-3 cells; test: Wound healing assay, BxPC-3; type: cell-based, human; details: 0.1 μM PGE2, 24 h, dose-dependent
# Experimental: The wound healing assay was performed according to a standard protocol as described before. Briefly, Pan02 and BxPC-3 cells were grown as a confluent monolayer in 12-well plates (Corning, Corning, NY, USA) overnight and starved with serum-free medium for 6 h. The monolayer cells were disrupted with a P100 micropipette tip (JET BIOFIL, Guangzhou, China) and rinsed with PBS to remove detached cells. Medium containing different concentrations of compounds was added subsequently. After 24 h, treated cells were stained with 2 μM calcein-AM (Yeasen, Shanghai, China) for 20 min and washed with PBS. Photos were taken of the area in the scraped zone of each dish at 100× magnification by using an inverted fluorescent microscope (OLYMPUS, Tokyo, Japan).
# [5] = tested on: YAP, CYR61, CTGF, Vimentin, Snail, E-cadherin mRNA in BxPC-3 cells; test: Real-time qPCR of YAP, YAP target genes and EMT markers, BxPC-3; type: cell-based, human; details: 12 h
# Experimental: Total RNA was extracted from cells using TRIzol reagent. The cDNA was synthesized by RT-PCR kit (Vazyme Biotech, Nanjing, China). The band intensity was determined by the gel image analysis system (Bio-Rad, Hercules, CA, USA). SYBR Green-based qPCR (Yeason, Shanghai, China) was conducted subsequently. Relative mRNA levels of target genes were normalized with β-actin. The sequences of primers are listed in Supplementary Table S1. The raw data are listed in Supplementary Table S2.
# [6] = tested on: BxPC-3 cells; test: Cell viability assay (MTS), BxPC-3; type: cell-based, human; details: 72 h
# Experimental: Cells were seeded into 96-well plates and treated with varied concentrations of compounds for 72 hrs. Cell viabilities were determined by using MTS reagent (Promega, Madison, WI, USA) according to the manufacturer’s manual. Spectrophotometric absorbance at 490 nm was measured by Flexstation® 3 Multi-Mode Microplate Reader (Molecular Devices, San Jose, CA, USA). The experiments were independently repeated three times.
# [7] = tested on: BxPC-3 cells; test: Transwell migration assay, BxPC-3; type: cell-based, human; details: BxPC-3; with PGE2; 24 h
# Experimental: The transwell assay was conducted as described previously, using 8 μm pore transwell inserts (Corning, NY, USA). Cells were suspended in serum-free DMEM and seeded into upper chambers at appropriate density. The bottom chamber was filled with DMEM supplemented with 10% fetal bovine serum and indicated concentrations of PGE2. The compounds were added in both upper and bottom chambers. […] Migrated cells were counted and quantified using image J.
# Sequence of EP4 (P35408 whole entry): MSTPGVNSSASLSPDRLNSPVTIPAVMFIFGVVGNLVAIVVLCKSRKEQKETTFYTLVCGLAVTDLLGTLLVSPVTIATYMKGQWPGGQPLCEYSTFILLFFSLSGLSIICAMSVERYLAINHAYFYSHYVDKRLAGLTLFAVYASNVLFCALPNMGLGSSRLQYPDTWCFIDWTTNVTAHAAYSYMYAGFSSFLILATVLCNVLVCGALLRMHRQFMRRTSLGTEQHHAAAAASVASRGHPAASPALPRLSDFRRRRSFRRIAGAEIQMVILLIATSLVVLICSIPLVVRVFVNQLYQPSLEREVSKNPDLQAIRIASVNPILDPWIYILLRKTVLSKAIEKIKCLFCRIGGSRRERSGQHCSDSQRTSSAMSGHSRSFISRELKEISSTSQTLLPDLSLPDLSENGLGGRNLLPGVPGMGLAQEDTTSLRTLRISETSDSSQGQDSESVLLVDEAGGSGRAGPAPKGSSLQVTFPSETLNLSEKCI
structure (smiles),measurement,setting,value
C[C@H](NC(=O)c1c(Cc2cccc(C(F)(F)F)c2)sc2c1CCOC2)c1ccc(C(=O)O)cc1 [L001],IC50,[1],7.29 ± 0.64 nM
same,antagonism efficacy on EP4 compared with E7046,[1]; CRE reporter assay,over 5 fold
same,IC50,[2],> 10 µM
same,PGE2-induced phosphorylation of ERK1/2,[3],significantly blocked
same,PGE2-triggered wound closure,[4],significantly blocked
same,PGE2-aroused upregulation of mRNA levels of Vimentin and Snail,[5],remarkably abrogated
same,PGE2-mediated downregulation of E-cadherin's expression,[5],reversed
same,"mRNA expression levels of YAP, CYR61 and CTGF induced by PGE2, in comparison with E7046","[5]; PGE2 0.1 μM, compound 10 μM",stronger reductions
same,cell viability,[6],did not affect the cell viabilities
same,migrated cells in the lower layer of the transwell,[7],reduced migrated cells
